From PubChem BioAssay (NCI)
Several values for one entry are separate records, joined by “and”; a condition that tells them apart may be missing. Equal entries are not always repeated.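 Following 48 hours of exposure in 96-well plates, responses at five concentrations were used to interpolate endpoints linearly. The concentration for 50% growth inhibition is given as GI50. TGI: concentration producing complete growth inhibition.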

Columns and labels:
Assay in all cases: inhibition of tumour cell growth, NCI panel, 48 h
NCI/ADR-RES ovarian = system: NCI/ADR-RES ovarian
COLO 205 colon = system: COLO 205 colon
A549 NSCLC = system: A549 NSCLC
SNB-19 CNS = system: SNB-19 CNS
OVCAR-3 ovarian = system: OVCAR-3 ovarian
UO-31 renal = system: UO-31 renal
NCI-H460 lung = system: NCI-H460 lung
U251 CNS = system: U251 CNS
SN12C renal = system: SN12C renal
ACHN renal = system: ACHN renal

SMILES	TGI (NCI/ADR-RES ovarian)	TGI (COLO 205 colon) [µM]	TGI (A549 NSCLC) [µM]	TGI (SNB-19 CNS)	TGI (OVCAR-3 ovarian)	TGI (UO-31 renal) [µM]	TGI (NCI-H460 lung)	TGI (U251 CNS) [µM]	TGI (SN12C renal)	TGI (ACHN renal)	GI50 (NCI/ADR-RES ovarian)	GI50 (SNB-19 CNS)	GI50 (ACHN renal)	GI50 (A549 NSCLC) [µM]	GI50 (OVCAR-3 ovarian) [µM]	GI50 (UO-31 renal) [µM]	GI50 (NCI-H460 lung) [µM]	GI50 (U251 CNS) [µM]	GI50 (SN12C renal) [µM]
Cc1c2c(cc3c1[nH]c1ccccc13)C(c1ccc(F)cc1)=NCC2	2.36 µM	2.15	6.47	6.94 µM	2.93 µM	4.08	2.45 µM	5.11	6.4 µM										
O=C1c2ccccc2-c2ccc(O)cc21	84.5 µM	58.4	88	48.7 µM		32.1	76.3 µM	70.3	36.9 µM	33.2 µM									
C[N+]1(C)C2CCC1CC(OC(=O)C(CO)c1ccccc1)C2 (stereo not given)	> 100 µM	> 100	> 100	> 100 µM	> 100 µM	> 100		> 100	> 100 µM	> 100 µM									
CCC(C)C(NC(=O)C(CCCCN)NC(=O)C(NC(=O)C(CCC(N)=O)NC(=O)C(CCCNC(=N)N)NC(C)=O)C(C)CC)C(=O)NC(Cc1c[nH]c2ccccc12)C(=O)NC(Cc1ccccc1)C(=O)NC(CCC(N)=O)C(=O)NC(CC(N)=O)C(=O)NC(CCCNC(=N)N)C(=O)NC(CCCNC(=N)N)C(=O)NC(CCSC)C(=O)NC(CCCCN)C(=O)NC(Cc1c[nH]c2ccccc12)C(=O)NC(CCCCN)C(=O)NC(CCCCN)C(N)=O (stereo not given)	> 50 µM	> 50	> 50	> 50 µM	> 50 µM		> 50 µM	> 50	> 50 µM	> 50 µM									
Cc1c(N)nc([C@H](CC(N)=O)NC[C@H](N)C(N)=O)nc1C(=O)N[C@H](C(=O)N[C@H](C)[C@@H](O)[C@H](C)C(=O)N[C@H](C(=O)NCCc1nc(-c2nc(C(=O)NCCC[S+](C)C)cs2)cs1)[C@@H](C)O)C(OC1OC(CO)C(O)C(O)C1OC1OC(CO)C(O)C(OC(N)=O)C1O)c1cnc[nH]1 (stereo not given in full)	12.8 µM and 4.87 µM and 5.61 µM			23 µM and 25 µM and > 100 µM	29 µM [middle of 4 runs]		13.1 µM and 7.63 µM and 31.6 µM		13.2 µM [middle of 4 runs]	0.343 µM and 0.34 µM and 1.03 µM	1.21 µM and 1.09 µM	2.72 µM and 2.89 µM	0.0135 µM and 0.0134 µM						
N#CCc1[nH]nc2nc(SCc3ccccc3)nc(N3CCCCC3)c12	32.3 µM	34.7	34.5	34.8 µM	37.4 µM	35.9	37.9 µM	35.2	28.7 µM	41.5 µM									
O=C1CS(=O)(=O)C(c2cccc(Oc3ccccc3)c2)N1c1cccc(Cl)c1Cl (stereo not given)		67.8	> 100	> 100 µM	57.3 µM	> 100	> 100 µM	37.4	44.6 µM	43.6 µM									
S=C(NCCCCCCNC(=S)Nc1c2ccccc2nc2ccccc12)Nc1c2ccccc2nc2ccccc12	> 100 µM	> 100	> 100	> 100 µM	> 100 µM	> 100	> 100 µM	> 100	> 100 µM										
CCn1cc(C(=O)O)c(=O)c2cc(F)c(N3CCN(Cn4c(O)c(N=NC(=O)c5ccncc5)c5cc(Cl)ccc54)CC3)cc21	> 100 µM	> 100	> 100	> 100 µM	> 100 µM	> 100	> 100 µM	94.4	> 100 µM	> 100 µM									
CN1CCN(CCCOc2ccc3ncnc(Nc4ccc(Oc5cccc(C(F)(F)F)c5)c(Cl)c4)c3c2)CC1	8.62 µM		2.74	3.8 µM	2.56 µM	2.44	3.37 µM	3.2	2.57 µM	2.55 µM	2.4 µM	1.83 µM	1.26 µM	1.27	1.09	1.21	1.73	1.54	1.26
O=c1c2c([nH]c3nccn13)CCCC2	> 10 µM	> 10	> 10	> 10 µM	> 10 µM	> 10	> 10 µM	> 10	> 10 µM	> 10 µM									
COC1CCC(OS(C)(=O)=O)CO1 (stereo not given)		> 100		> 100 µM	> 100 µM	> 100	> 100 µM	> 100		> 100 µM									
OC(c1ccc(-c2ccccc2)cc1)(c1ccc(-c2ccccc2)cc1)c1ccc(-c2ccccc2)cc1	> 100 µM	> 100	> 100	> 100 µM	> 100 µM	> 100	> 100 µM	> 100	> 100 µM	> 100 µM									
C=C1C(C2(C)C=CC(=O)OC3(C)COC(=O)CC32)C(OC=O)C(OC(=O)C(O)C(C)CC)C2(C)C(c3ccoc3)CC(OC(C)=O)C12O (stereo not given)	> 100 µM	> 100	> 100	> 100 µM	> 100 µM	> 100	> 100 µM	> 100	> 100 µM	> 100 µM									
C=CCOCCCC(=O)C(=[N+]=[N-])C(=O)OC		> 100	> 100	> 100 µM	> 100 µM	> 100	> 100 µM	> 100	> 100 µM	> 100 µM									
O=C1c2scnc2-c2nccc3c2c1nc1ccccc13	> 100 µM	2.68	4.87		> 100 µM	2.74	1.58 µM		4.23 µM	2.15 µM									
